The record followed here is patent US8871741B2, “Inhibition of TNF-α induced activation of NFKB by pentosan polysulfate” (Icahn School of Medicine at Mount Sinai, priority 2010, dated 2014).

“Also recorded” adds a separate entry of the source.

One data set concerns MMP-2 and MMP-9. The data set is described as follows: Zymography of supernatants of human peripheral blood-derived macrophages. It counts as cell-based. To be noted: TNF-α stimulated human peripheral blood-derived macrophages, 100 μg/ml PPS. Here is the method: Human peripheral blood monocytes were isolated as previously described (Valone F H, Epstein L B. J Immunol. 1988; 141: 3945-3950), and maintained in medium 199 supplemented with 2% human serum for in vitro differentiation into macrophages (Camussi G, et al., J Exp Med. 1987; 166: 1390-1404).
MMP activity in aortic extracts and conditioned media from monocytes was assessed, as previously described (Jacot T A, et al., Lab Invest. 1996; 75:791-79). Briefly, aortic segments were homogenized and extracted in RIPA buffer (25 mM Tris, pH 7.4, 150 mM KCl, 5 mM EDTA, 1% Nonidet P-40, 0.5% sodium deoxycholate, and 0.1% SDS). Insoluble material was precipitated by centrifugation, and soluble extracts were collected and stored at −20° C. for further analysis. For in vitro experiments, cell supernatants were centrifuged to remove cellular debris, and diluted appropriately to normalize for cell number. Aortic extracts and conditioned media were then mixed with sample buffer (1% SDS, 0.08 M Tris pH 6.8, 4% glycerol, and 0.006% bromophenol blue), and loaded onto a 10% gelatin polyacrylamide gel, and processed as described (Jacot T A, et al., Lab Invest. 1996; 75:791-79). For reverse zymography, samples were loaded onto a 15% gelatin polyacrylamide gel containing 0.5% porcine gelatin and 6 μg recombinant gelatinase A, and processed as described (Elliot S J, et al., J Am Soc Nephrol. 1999; 10: 62-68).

The test system of a further data set is monocytic cells. The data set is described as follows: Cell viability by trypan blue staining. It counts as cell-based, human.
In data set [1] the test system is MCP-1, RANTES, CXCL-1 mRNA. Description: Real-time PCR of chemokine mRNA in renal cortex. The class given is in vivo, mouse. To be noted: PPS treated 22 month-old diabetic mice; P<0.01 vs. DN. The protocol: Total RNA was isolated from renal cortex using a PureYield RNA Midiprep kit (Promega, Madison, Wis.). The preparation was free of DNA contamination and 500 ng of total RNA from each sample was reverse-transcribed as previously described (Zheng F, Striker G E, Esposito C, Lupia E, Striker L J. Kidney Int 1998, 54:1999-2007; Zheng F, et al., Am Pathol 2003, 162:1339-1348). The levels of MCP-1 (monocyte chemoattractant protein-1), CXCL1 (c-x-c motif ligand 1), MIP2 (macrophage inflammatory protein 2), RANTES (regulated on activation, normal T cell expressed and secreted), ICAM-1 ([…] adhesion molecule 1), GRP78 (glucose regulatory protein 78), CHOP, and IL-6 (interleukin 6) mRNA were determined by real-time polymerase chain reaction (PCR). The primers used for the measurement were:
(§1) mRNA levels were corrected by the levels of β-actin or GAPDH mRNA. The expression of TNFα mRNA in kidney was determined by both a real time and a regular PCR using the primer of forward, 5′-[…]-3′ (SEQ ID NO: 17), reverse, 5′-[…]-3′ (SEQ ID NO: 18). GAPDH and β-actin mRNA levels were measured in the same sample.

The next data set relates to TNFα mRNA. The data set is described as follows: PCR of TNFα mRNA in kidney. The class given is in vivo, mouse. To be noted: PPS treated 22 month-old diabetic mice, up to 40 PCR cycles. The protocol: as §1
Another data set deals with macrophages (F4/80). Description: F4/80 immunostaining for macrophage infiltration in kidney. The class given is in vivo, mouse. Conditions: PPS treated 22 month-old diabetic mice. From the text: Paraffin sections from non-diabetic and diabetic mice were deparaffinized prior to staining for apoptosis, makers for inflammation such as macrophages (F4/80, 1:100, Caltag Laboratories, Burlingame, Calif.) and phosphorylated NF-κB (p65 (Ser276), 1:25, Cell Signaling Technology, Inc, Danvers, Mass.), markers for oxidative stress, i.e., nitrotyrosine (1:140, Upstate Biotechnology Inc, Billerica, Mass.) and malondialdehyde (MDA, 1:100, Alpha Diagnostic International Inc, San Antonio, Tex.), and markers for endoplasmic reticulum (ER) stress, i.e., phosphorylated pancreatic ER kinase (PERK, 1:5, Santa Cruz Biotechnology, Santa Cruz, Calif.), and phosphorylated eukaryotic initiation factor 2α (eIF2α, 1:50, Stressgen Bioreagents Corp, Norwalk, Conn.).
Stained sections were examined under light microscopy (Zeiss Axioskop, Germany). The cortical area of the kidney was digitized under ×10 objective low power with a Sony 3CCD color video camera and a meta imaging series software (Molecular Devices, Downingtown, Pa.). The area of positively stained tubules and glomeruli was measured and expressed as the percentage of total cortical area. The intensity of the staining was also assessed using the color differentiation program.

A further data set deals with NF-κB. Description: NF-κB luciferase reporter assay in proximal tubular cells. The class given is cell-based, mouse. Conditions: PPS 50-200 μg/ml, TNFα 10 ng/ml. The protocol:
To further determine the effect of PPS on NF-κB transcription activity, proximal tubular cells were transfected with a NF-κB reporter in the presence or absence of PPS (50-200 μg/ml) and TNFα (10 ng/ml). Some cells were also transfected with a cDNA expression vector containing constitutively active IκB, dominant negative IKK, or IKK. A β-galactosidase cDNA expression vector was co-transfected with the NF-κB reporter to serve as an internal control for transfection efficiency. Luciferase and β-galactosidase activity were measured using substrate assays. The same amount of DNA (1 μg/well of 24 well plates) was used for each transfection throughout the experiments.

For the next data set, the system named is podocytes. Description: Albumin permeability of podocyte monolayers (FITC-labeled BSA flux). The class given is cell-based. Conditions: podocyte monolayer. Here is the method: 1×10^5 podocytes were seeded onto collagen-coated transwell filters ([…] pore-size, Corning, N.Y., N.Y.) placed in the top chamber of each well of a 24-well plate. After cells reached confluence, some wells of cells were treated with TNFα (20 ng/ml), PPS (400 μg/ml), or PPS plus TNFα in 2% FBS medium for 8 hours. Then the medium from both the top and bottom chamber was completely removed, cells were washed twice with PBS and the top chamber was refilled with 0.2 ml 2% FBS medium supplemented with 0.5 mg/ml FITC-labeled BSA (Sigma Aldrich, St Louis, […].), while the bottom chamber was refilled with 0.6 ml 2% FBS medium supplemented with 0.5 mg/ml unlabeled BSA. At different time points, 100 μl aliquots were collected from the bottom chamber and fluorescence was measured by a fluorescence spectrophotometer (485 nm excitation, 535 nm emission). The concentration of FITC-BSA passing through the monolayer was determined by reference to a set of standard dilutions of FITC-BSA. The value of albumin flux through untreated monolayer was arbitrarily defined as 100%.

Regarding pentosan polysulfate [PPS], the “effect on MMP production” value in the data set with MMP-2 and MMP-9 was “inhibitory effect”. Besides, in the data set with monocytic cells, the “effect on cell viability” value was “no effect”. Besides, the “mRNA levels of MCP-1, RANTES, and CXCL-1 in renal cortices” value in data set [1] was “levels similar to 22 month-old non-diabetic”. Moreover, the “TNFα mRNA expression in the kidneys” value in the data set on TNFα mRNA was “completely prevented the upregulation; also recorded: absent”. Besides, the “macrophage infiltration in kidney (F4/80 immunostaining)” value in the data set with macrophages (F4/80) was “largely prevented”. In the data set with NF-κB, the “TNFα stimulated NF-κB transcriptional activity” value was “dependently decreased”. For the same substance, the “inhibition of the flux of FITC-labeled BSA” value with podocytes (PPS 400 μg/ml plus TNFα 20 ng/ml, FIG. 18 legend) is reported as 34%. The “reduction of the TNFα-induced increase in FITC-labeled albumin passage” value in the data set with podocytes (PPS 400 μg/ml, TNFα 20 ng/ml) is on record as roughly 60%.
